Measured values reported in patent US20230137667A1, “METHODS AND COMPOSITIONS FOR TREATMENT OF CORONAVIRUS INFECTION” (priority 2020, published 2023).
Like-named read-outs stand apart in the source and are kept apart here.

Columns and labels:
caspases 3/7 [1] = type: cell-based, human
caspases 3/7 [2] = type: cell-based, human; remark: listed apart in the source
[3] = test system: primary human lung microvascular endothelial cells (MVE)
[4] = test system: primary human lung fibroblasts (FB)
[5] = test system: primary human lung microvascular endothelial cells (MVE); remark: listed apart in the source
[6] = test system: primary human lung fibroblasts (FB); remark: listed apart in the source
MERS-CoV [7] = type: cell-based
MERS-CoV [8] = type: cell-based; remark: listed apart in the source

## Cc1ccc2cc(-c3c(C)ccc(C(=O)c4c(-c5ccccc5)n(C)n(-c5ccccc5)c4=O)c3N)ccc2n1 [AMG PERK 44]
Caspases 3/7 [1]
  caspase 3/7 activation above untreated infected cells: No significant dose responsive change in caspase 3/7 activation above untreated infected cells
Caspases 3/7 [2]
  caspase 3/7 activation above untreated infected cells: No significant dose responsive change in caspase 3/7 activation above untreated infected cells
[3]
  cytotoxicity (CellTiter-Glo cell viability): dose dependent increase in cytotoxicity

## C[C@H](CCC(=O)O)C[C@H](C)C[C@H](C)C(=O)/C=C(\O)[C@H](C)C[C@H](C)C/C=C/[C@@H](C)[C@@H](O)[C@@H](C)[C@@H](O)C[C@@H]1CC[C@@](C)([C@H]2CC[C@@](C)([C@@H](C)O)O2)O1 [ionomycin]
Caspases 3/7 [1]
  caspase 3/7 activation: did not induce caspase 3/7 activation
Caspases 3/7 [2]
  caspase 3/7 activation: did not induce caspase 3/7 activation
[4]
  cell viability: diminished cell viability
[5]
  cell viability: diminished cell viability

## CN[C@@H]1C[C@H]2O[C@@](C)([C@@H]1OC)n1c3ccccc3c3c4c(c5c6ccccc6n2c5c31)C(=O)NC4 [staurosporine]
Caspases 3/7 [1]
  caspase 3/7 activation: significantly induced caspase 3/7 activation
Caspases 3/7 [2]
  caspase 3/7 activation: significantly induced caspase 3/7 activation
[4]
  cell viability: diminished cell viability
[5]
  cell viability: diminished cell viability

## O=C(COc1ccc(Cl)cc1)NC1CCC(NC(=O)COc2ccc(Cl)cc2)CC1 (stereo not drawn) [trans-ISRIB]
[6]
  cytotoxicity (CellTiter-Glo cell viability): not cytotoxic at any dose tested
MERS-CoV [7]
  MERS-CoV replication (nanoluciferase expression): did not alter MERS-CoV replication in either infected MVE or FB
MERS-CoV [8]
  MERS-CoV replication (nanoluciferase expression): did not alter MERS-CoV replication in either infected MVE or FB
[3]
  cytotoxicity (CellTiter-Glo cell viability): not cytotoxic at any dose tested
